Consider three molecules from BindingDB's records for doi:10.1016/j.bmcl.2017.11.013 (Csir-Indian Institute of Integrative Medicine, 2017).

Data set [1] can be described thus: Inhibition of human CYP1B1 expressed in MDA-MB-468 cells assessed as potentiation of cisplatin-induced cytotoxicity by measuring cisplatin EC50 at 20 uM (Rvb = 6.70+/- 0.7 uM).
Data set [2] can be described thus: Inhibition of human CYP1A1 transfected in HEK293 cells assessed as protection against CYP1A1 mediated B[a]P toxicity by measuring B[a]P EC50 at 20 uM by MTT assay (Rvb =1.2+/- 0.3 uM). On the technique in general: Tetrazolium dyes change colour on reduction, which living cells bring about.
Data set [3] can be described thus: Inhibition of human CYP1B1 expressed in MDA-MB-468 cells assessed as potentiation of cisplatin-induced cytotoxicity by measuring cisplatin EC50 at 6.6 uM (Rvb = 6.70+/- 0.7 uM).

Take `O=c1cc(-c2ccccc2)oc2c1ccc1ccccc12`: in data set [1], the EC50 (as a rule, the concentration at which the effect is half-maximal) is 5.1 µM.
Regarding `CC(C)=CCc1cc(C2CC(=O)c3ccc(O)c(CC=C(C)C)c3O2)ccc1O` (stereo not given), the EC50 came to 2.3 µM in data set [2] and 5.2 µM in data set [1].
As for `O=c1c(O)c(-c2ccc(O)c(O)c2)oc2cc(O)cc(O)c12` [2-(3,4-dihydroxyphenyl)-3,5,7-trihydroxy-chromone;hydrate], the concentration for a half-maximal effect (EC50) in data set [2] turned out to be 8.8 µM; in data set [3], 1.1 µM.
